Measurements taken from ChEMBL document CHEMBL4680247, “Design, synthesis, and biological evaluation of 3-amino-2-oxazolidinone derivatives as potent quorum-sensing inhibitors of Pseudomonas aeruginosa PAO1” (Eur J Med Chem, 2020).
≈ marks a conversion by molar mass, not a printed value. Calls of active or inactive are those of the source. No cut-off for these calls is given here.

How the values were obtained:
[1] = test system: Chromobacterium violaceum; test: Antibacterial activity against Chromobacterium violaceum CV026 mini-Tn5 mutant; type: functional, organism-based
[2] = Inhibition of quorum sensing in Chromobacterium violaceum CV026 mini-Tn5 mutant after 12 hrs in presence of C6-HSL
[3] = test system: Chromobacterium violaceum; test: Inhibition of quorum sensing in Chromobacterium violaceum CV026 mini-Tn5 mutant at 2.5 to […] after 12 hrs in presence of C6-HSL
[4] = test system: Pseudomonas aeruginosa; test: Inhibition of biofilm formation in Pseudomonas aeruginosa PAO1 at 10 to 325 uM after 20 hrs by crystal violet assay relative to control; type: functional; conditions: dose 10-325 µM
[5] = test system: Pseudomonas aeruginosa PAO1; test: Inhibition of quorum sensing lasB in Pseudomonas aeruginosa PAO1 assessed as reduction in elastase level at 20 to 162.5 uM after 16 hrs by elastin Congo red method; conditions: dose 20-162.5 µM
[6] = test system: Pseudomonas aeruginosa PAO1; test: Inhibition of quorum sensing Rhl/PQS in Pseudomonas aeruginosa PAO1 assessed as reduction in pyocyanin level at 20 to 162.5 uM after 16 hrs; conditions: dose 20-162.5 µM
[7] = test system: Pseudomonas aeruginosa; test: Inhibition of biofilm formation in Pseudomonas aeruginosa PAO1after 20 hrs by crystal violet assay; type: functional, organism-based; conditions: PAO1, dose 10-325 µM
[8] = test system: Pseudomonas aeruginosa; test: Inhibition of biofilm formation in Pseudomonas aeruginosa PAO1 at 162.5 uM after 20 hrs by crystal violet assay relative to control; type: functional
[9] = test system: Pseudomonas aeruginosa PAO1; test: Inhibition of quorum sensing RhlAB in Pseudomonas aeruginosa PAO1 assessed as reduction in rhamnolipid level at 20 to 162.5 uM after 48 hrs by sulfuric acid-orcinol method; conditions: dose 20-162.5 µM
[10] = test system: Pseudomonas aeruginosa PAO1; test: Inhibition of quorum sensing las in Pseudomonas aeruginosa PAO1 assessed as reduction in protease level at 20 to 162.5 uM after 16 hrs; conditions: dose 20-162.5 µM
[11] = test system: Pseudomonas aeruginosa PAO1; test: Inhibition of quorum sensing Rhl/PQS in Pseudomonas aeruginosa PAO1 assessed as reduction in pyocyanin level at 162.5 uM after 16 hrs relative to control
[12] = test system: Pseudomonas aeruginosa PAO1; test: Inhibition of quorum sensing lasB in Pseudomonas aeruginosa PAO1 assessed as reduction in elastase level at 162.5 uM after 16 hrs by elastin Congo red method relative to control
[13] = test system: Pseudomonas aeruginosa PAO1; test: Inhibition of quorum sensing RhlAB in Pseudomonas aeruginosa PAO1 assessed as reduction in rhamnolipid level at 162.5 uM after 48 hrs by sulfuric acid-orcinol method relative to control
[14] = test system: Pseudomonas aeruginosa PAO1; test: Inhibition of quorum sensing las in Pseudomonas aeruginosa PAO1 assessed as reduction in protease level at 162.5 uM after 16 hrs
[15] = test system: Pseudomonas aeruginosa PAO1; test: Inhibition of quorum sensing system in Pseudomonas aeruginosa PAO1 assessed as reduction in swarming motility after 24 hrs; conditions: dose 20-162.5 µM
[16] = test system: Pseudomonas aeruginosa; test: Antibacterial activity against Pseudomonas aeruginosa PAO1 planktonic cells assessed as reduction in bacterial growth after 18 hrs by resazurin dye based assay; conditions: PAO1, 18 h
[17] = test system: Pseudomonas aeruginosa; test: Antibacterial activity against Pseudomonas aeruginosa PAO1 biofilm cells assessed as reduction in bacterial growth after 2 days by resazurin dye based assay; conditions: PAO1, 48 h
[18] = test system: Pseudomonas aeruginosa; test: Antibacterial activity against Pseudomonas aeruginosa ATCC 27853 planktonic cells assessed as reduction in bacterial growth after 18 hrs by resazurin dye based assay; type: functional
[19] = test system: Pseudomonas aeruginosa; test: Antibacterial activity against Pseudomonas aeruginosa ATCC 27853 biofilm cells assessed as reduction in bacterial growth after 2 days by resazurin dye based assay; type: functional; conditions: ATCC 27853, 48 h, time 2 day
[20] = test system: Pseudomonas aeruginosa; test: Synergistic antibacterial activity against Pseudomonas aeruginosa PAO1 biofilm cells assessed as fold change in MPEM MIC by checker board assay; type: functional
[21] = test system: Pseudomonas aeruginosa; test: Synergistic antibacterial activity against Pseudomonas aeruginosa PAO1 biofilm cells assessed as FICI in presence of MPEM by checker board assay; type: functional
[22] = test system: Pseudomonas aeruginosa; test: Antibacterial activity against Pseudomonas aeruginosa PAO1 biofilm cells assessed as reduction in microbial growth under sonication at 0.25 ug/ml after 6 days; type: functional, organism-based; conditions: dose 0.25 µg/ml, time 6.0 day
[23] = test system: Pseudomonas aeruginosa; test: Antibacterial activity against Pseudomonas aeruginosa PAO1 biofilm cells assessed as reduction in microbial growth at 10 uM after 6 days; type: functional, organism-based; conditions: time 6.0 day
[24] = test system: Pseudomonas aeruginosa; test: Antibacterial activity against Pseudomonas aeruginosa PAO1 biofilm cells assessed as reduction in microbial growth at 10 uM after 6 days in presence of MPEM; type: functional, organism-based; conditions: time 6.0 day
[25] = test system: Pseudomonas aeruginosa; test: Antibacterial activity against Pseudomonas aeruginosa PAO1 infected in Caenorhabditis elegans N2 strain assessed as reduction in bacterial growth at 162.5 uM after 120 hrs; type: functional, organism-based
[26] = test system: Pseudomonas aeruginosa; test: Antibacterial activity against Pseudomonas aeruginosa PAO1 infected in Caenorhabditis elegans N2 strain assessed as increase in Caenorhabditis elegans survival rate at 162.5 uM after 120 hrs relative to control; type: functional
[27] = test system: Pseudomonas aeruginosa; test: Antibacterial activity against Pseudomonas aeruginosa PAO1 infected in Caenorhabditis elegans N2 strain assessed as increase in Caenorhabditis elegans survival rate at 162.5 uM up to 240 hrs relative to control; type: functional; conditions: time hrs <=240
[28] = test system: Pseudomonas aeruginosa; test: Ratio of MIC for antibacterial activity against Pseudomonas aeruginosa PAO1 biofilm cells to antibacterial activity against Pseudomonas aeruginosa PAO1 planktonic cells; type: functional
[29] = test system: Pseudomonas aeruginosa; test: Antibacterial activity against Pseudomonas aeruginosa PAO1 infected in Caenorhabditis elegans N2 strain assessed as reduction in bacterial growth at 0.25 ug/ml after 120 hrs; type: functional, organism-based; conditions: dose 0.25 µg/ml
[30] = test system: Pseudomonas aeruginosa; test: Antibacterial activity against Pseudomonas aeruginosa PAO1 infected in Caenorhabditis elegans N2 strain assessed as increase in Caenorhabditis elegans survival rate at 0.25 ug/ml after 120 hrs relative to control; type: functional; conditions: dose 0.25 µg/ml
[31] = test system: Pseudomonas aeruginosa; test: Antibacterial activity against Pseudomonas aeruginosa PAO1 infected in Caenorhabditis elegans N2 strain assessed as increase in Caenorhabditis elegans survival rate at 0.25 ug/ml up to 240 hrs relative to control; type: functional; conditions: dose 0.25 µg/ml; time hrs <=240

O=C(CCCCCCOc1ccc([N+](=O)[O-])cc1)NN1CCOC1=O
Activity [1]: inactive

O=C(CCCCCOc1ccc(Cl)cc1)NN1CCOC1=O
IC50 [2]: 32.8 µM | Activity [1]: inactive | inhibition [3]: Active

O=C(CCCCCCSc1ccc(Cl)cc1)NN1CCOC1=O
Activity [1]: inactive

O=C(CCCOc1ccc(F)cc1F)NN1CCOC1=O
IC50 [2]: 19.6 µM | Activity [1]: inactive | inhibition [3]: Active

O=C(CCCCOc1ccc(F)cc1)NN1CCOC1=O
IC50 [2]: 23.1 µM | Activity [1]: inactive | inhibition [3]: Active

O=C(CCCOc1cccc(F)c1)NN1CCOC1=O
IC50 [2]: 15.5 µM | Activity [1]: inactive | inhibition [3]: Active

O=C(CCCOc1ccccc1F)NN1CCOC1=O
IC50 [2]: 40.9 µM | Activity [1]: inactive | inhibition [3]: Active

O=C(CCCOc1ccc(Br)cc1)NN1CCOC1=O
inhibition (INH) [4]: 17.67% | IC50 [2]: 3.69 µM | Activity [1]: inactive | inhibition [3]: Active | inhibition [5]: Active | inhibition [6]: Active | inhibition [7]: Dose-dependent effect | inhibition at 162.5 µM [8]: 40.4% | inhibition [9]: Active | inhibition [10]: Active | inhibition [11]: 22.5% | inhibition [12]: 16.2% | inhibition [13]: 57.9% | inhibition [14]: 14.9% | inhibition [15]: Dose-dependent effect | MIC [16]: > 1110 µg/mL | MIC [17]: > 1110 µg/mL | MIC [18]: > 1110 µg/mL | MIC [19]: > 1110 µg/mL | fold change (FC) [20]: 8 | fractional inhibitory concentration index (FICI) [21]: <0.5 | Activity [22]: Active | Activity [23]: inactive | Activity [24]: Active | Activity [25]: Active | Activity [26]: 16% | Activity [27]: 18.33%

C[C@@H](O)[C@H]1C(=O)N2C(C(=O)O)=C(S[C@@H]3CN[C@H](C(=O)N(C)C)C3)[C@H](C)[C@H]12 [MEROPENEM]
MIC [16]: 0.25 µg/mL (≈ 0.652 µM) | MIC [17]: 8 µg/mL (≈ 20.9 µM) | Ratio [28]: 32 | Activity [29]: Active | Activity [30]: 13.33% | Activity [31]: 15.67%

NC[C@H]1O[C@H](O[C@H]2[C@H](O)[C@@H](O[C@H]3O[C@H](CO)[C@@H](O)[C@H](N)[C@H]3O)[C@H](N)C[C@@H]2N)[C@H](N)C[C@@H]1O [TOBRAMYCIN]
MIC [16]: 2 µg/mL (≈ 4.28 µM) | MIC [17]: 8 µg/mL (≈ 17.1 µM)

O=C(CCCCCCOc1ccc(Br)cc1Br)NN1CCOC1=O
Activity [1]: inactive

NCC[C@H](O)C(=O)N[C@@H]1C[C@H](N)[C@@H](O[C@H]2O[C@H](CN)[C@@H](O)[C@H](O)[C@H]2O)[C@H](O)[C@H]1O[C@H]1O[C@H](CO)[C@@H](O)[C@H](N)[C@H]1O [AMIKACIN]
MIC [16]: 4 µg/mL (≈ 6.83 µM) | MIC [17]: 16 µg/mL (≈ 27.3 µM)

O=C(CCCOc1cc(F)cc(F)c1)NN1CCOC1=O
IC50 [2]: 61.6 µM | Activity [1]: inactive | inhibition [3]: Active

O=C(CCCCCCOc1ccc(Br)cc1)NN1CCOC1=O
Activity [1]: inactive

CC(C)(O/N=C(\C(=O)N[C@@H]1C(=O)N2C(C(=O)[O-])=C(C[n+]3ccccc3)CS[C@H]12)c1csc(N)n1)C(=O)O [CEFTAZIDIME]
MIC [16]: 1 µg/mL (≈ 1.83 µM) | MIC [17]: 2 µg/mL (≈ 3.66 µM)

O=C(CCCOc1cccc(Cl)c1)NN1CCOC1=O
IC50 [2]: 38.1 µM | Activity [1]: inactive | inhibition [3]: Active

O=C(CCCOc1ccc(F)cc1)NN1CCOC1=O
IC50 [2]: 11 µM | Activity [1]: inactive | inhibition [3]: Active

O=C(CCCCCCOc1ccc(Cl)cc1)NN1CCOC1=O
Activity [1]: inactive

O=C(CCCOc1ccc([N+](=O)[O-])cc1)NN1CCOC1=O
IC50 [2]: 21.3 µM | Activity [1]: inactive | inhibition [3]: Active

O=C(CCCCOc1cccc(F)c1)NN1CCOC1=O
IC50 [2]: 63.6 µM | Activity [1]: inactive | inhibition [3]: Active

CCCCCCCCCC(=O)N[C@H]1CCOC1=O
IC50 [2]: 0.13 µM

O=C(CCCSc1ccc(Cl)cc1)NN1CCOC1=O
IC50 [2]: 6.84 µM | Activity [1]: inactive | inhibition [3]: Active

O=C(O)c1cn(C2CC2)c2cc(N3CCNCC3)c(F)cc2c1=O [CIPROFLOXACIN]
MIC [16]: 0.08 µg/mL (≈ 0.241 µM)

O=C(CCCCOc1ccc(Cl)cc1)NN1CCOC1=O
IC50 [2]: 39.5 µM | Activity [1]: inactive | inhibition [3]: Active
